Results reported in US20240287076A1, “COMPOUNDS FOR TARGETING DEGRADATION OF BRUTON'S TYROSINE KINASE” (BIOGEN MA INC., priority 2021, published 2024).

biological target: T1, BTK (Homo sapiens, UniProt Q06187); assay: BTK degradation assay using the HiBiT Method (Nano-Glo HiBiT Lytic Assay, GM01501.3 cells); type: cell-based; conditions: HiBiT Degradation on GM01501.3 BTK @ 6 hours
T1 construct: The GM01501.3 cell line endogenously expresses BTK with a HiBiT fusion tag via CRISPR knock-in at its C-terminal region; endogenous in cells; host or cells: GM01501.3 (GM01501 cells engineered by CRISPR knock-in of HiBiT at the BTK locus)
Protocol: Selected compounds were tested in a BTK degradation assay using the HiBiT Method. Park Memorial Institute (RPM1) 1640 Medium with phenol red, L-Glutamine, Sodium Pyruvate, and fetal bovine serum (FBS) were purchased from Gibco (Grand Island, NY, USA). Nano-Glo® HiBiT Lytic Assay System was purchased from Promega (Madison, WI, USA). GM01501 cells were obtained from the NIGMS Human Genetic Cell Repository at the Coriell Institute for Medical Research. The GM01501.3 cell line endogenously expresses BTK with a HiBiT fusion tag via CRISPR knock-in at its C-terminal region. It was engineered by electroporation with the Neon Transfection System (Themo Fisher Scientific), according to manufacturer indications. Electroporation conditions: 1 pulse of 1,350 V for 30 ms for 0.5×10_6 cells. Cell culture flasks and 384-well microplates were acquired from VWR (Radnor, PA, USA). BTK degradation was evaluated by quantification of luminescent signal using Nano-Glo® HiBiT Lytic Assay kit. Test compounds were added to the 384-well plate from a top concentration of 10 μM with 11 points, half log titration in duplicates. GM01501.3 cells were added into 384-well plates at a cell density of 10,000 cells per well in a total volume of 30 μl. The plates were kept at 37° C. with 5% CO2 for 6 hours. Negative control wells included cells treated with DMSO only and positive control wells included only growing media, without Nano-Glo® HiBiT Lytic reagent. After a 6-hour incubation, Nano-Glo® HiBiT Lytic Assay reagent was added to the cells following manufacturer indications. Luminescence was acquired on EnVision™ Multilabel Reader (PerkinElmer, Santa Clara, CA, USA). […] “++++” represents a DC50 value of less than 100 nM. “+++” represents a DC50 value of 100 nM-500 nM. “++” represents a DC50 value of 500 nM-1000 nM. “+” represents a DC50 value of greater than 1000 nM.

T1 sequence (Q06187 whole entry, the tested form may be a part): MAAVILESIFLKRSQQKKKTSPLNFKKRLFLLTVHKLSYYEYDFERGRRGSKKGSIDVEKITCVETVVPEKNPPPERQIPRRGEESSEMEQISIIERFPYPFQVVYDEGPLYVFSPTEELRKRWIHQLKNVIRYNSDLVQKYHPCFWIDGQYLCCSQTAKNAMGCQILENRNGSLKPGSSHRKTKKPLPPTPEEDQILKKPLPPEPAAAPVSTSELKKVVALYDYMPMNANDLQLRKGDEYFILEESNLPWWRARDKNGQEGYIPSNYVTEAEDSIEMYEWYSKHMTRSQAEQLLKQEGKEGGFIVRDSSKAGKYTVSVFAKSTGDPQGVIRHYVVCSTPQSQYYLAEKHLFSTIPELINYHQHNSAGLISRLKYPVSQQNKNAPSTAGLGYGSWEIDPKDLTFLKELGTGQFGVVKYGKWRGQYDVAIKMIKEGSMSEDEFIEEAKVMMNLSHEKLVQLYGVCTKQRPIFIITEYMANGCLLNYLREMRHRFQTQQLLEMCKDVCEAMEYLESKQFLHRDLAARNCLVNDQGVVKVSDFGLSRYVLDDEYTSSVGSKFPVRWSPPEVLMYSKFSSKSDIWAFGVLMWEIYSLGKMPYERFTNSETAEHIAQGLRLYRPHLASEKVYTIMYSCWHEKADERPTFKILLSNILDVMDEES

| Compound | DC50 [µM] |
| --- | --- |
| Cc1cc(-c2ncnn3cc(-c4ccc(CN5CCC(c6ccc(NC7CCC(=O)NC7=O)cc6)CC5)cc4)cc23)ccc1CNC(=O)N1CCC(OC(C)(C)C)C1 (stereo not drawn) [Example 98, 3-tert-butoxy-N-[[4-[6-[4-[[4-[4-[(2,6-dioxo-3-piperidyl)amino]phenyl]-1-piperidyl]methyl]phenyl]pyrrolo[2,1-f][1,2,4]triazin-4-yl]-2-methyl-phenyl]methyl]pyrrolidine-1-carboxamide] | < 0.1 |
| Cc1cc(-c2ncnn3cc(-c4ccc(CN5CCOCC(n6cc(NC7CCC(=O)NC7=O)cn6)C5)cc4)cc23)ccc1CNC(=O)c1noc(C(C)(C)C)n1 (stereo not drawn) [Example 203, 5-(tert-butyl)-N-(4-(6-(4-((6-(4-((2,6-dioxopiperidin-3-yl)amino)-1H-pyrazol-1-yl)-1,4-oxazepan-4-yl)methyl)phenyl)pyrrolo[2,1-f][1,2,4]triazin-4-yl)-2-methylbenzyl)-1,2,4-oxadiazole-3-carboxamide] | < 0.1 |
| Cc1cc(-c2ncnn3cc(-c4ccc(CN5CCC(c6ccc(NC7CCC(=O)NC7=O)cc6)CC5)cc4)cc23)ccc1CNC(=O)c1ccc(F)c(F)c1 (stereo not drawn) [Example 65, N-[[4-[6-[4-[[4-[4-[(2,6-dioxo-3-piperidyl)amino]phenyl]-1-piperidyl]methyl]phenyl]pyrrolo[2,1-f][1,2,4]triazin-4-yl]-2-methyl-phenyl]methyl]-3,4-difluoro-benzamide] | < 0.1 |
| Cc1cc(-c2ncnn3cc(CCN4CCN(c5ccc(NC6CCC(=O)NC6=O)cn5)CC4)cc23)ccc1CNC(=O)c1noc(C(C)(C)C)n1 (stereo not drawn) [Example 260, 5-(tert-butyl)-N-(4-(6-(2-(4-(5-((2,6-dioxopiperidin-3-yl)amino)pyridin-2-yl)piperazin-1-yl)ethyl)pyrrolo[2,1-f][1,2,4]triazin-4-yl)-2-methylbenzyl)-1,2,4-oxadiazole-3-carboxamide] | < 0.1 |
| Cc1cc(-c2ncnn3cc(CCCCN4CCC(c5ccc6c(N7CCC(=O)NC7=O)nn(C)c6c5)CC4)cc23)ccc1CNC(=O)c1noc(C(C)(C)C)n1 [Example 133, 5-tert-butyl-N-[[4-[6-[4-[4-[3-(2,4-dioxohexahydropyrimidin-1-yl)-1-methyl-indazol-6-yl]-1-piperidyl]butyl]pyrrolo[2,1-f][1,2,4]triazin-4-yl]-2-methyl-phenyl]methyl]-1,2,4-oxadiazole-3-carboxamide] | < 0.1 |
| Cc1cc(-c2ncnn3cc(-c4nc(CN5CCC(c6ccc(C7CCC(=O)NC7=O)cc6)CC5)co4)cc23)ccc1CNC(=O)c1noc(C(C)(C)C)n1 (stereo not drawn) [Example 219, 5-(tert-butyl)-N-(4-(6-(4-((4-(4-(2,6-dioxopiperidin-3-yl)phenyl)piperidin-1-yl)methyl)oxazol-2-yl)pyrrolo[2,1-f][1,2,4]triazin-4-yl)-2-methylbenzyl)-1,2,4-oxadiazole-3-carboxamide] | < 0.1 |
| CC(C)(C)c1nc(C(=O)NCc2ccc(-c3ncnn4cc(-c5ccc(CN6CCC(c7ccc(NC8CCC(=O)NC8=O)cc7)CC6)cc5)cc34)cc2)no1 (stereo not drawn) [Example 41, 5-tert-butyl-N-[[4-[6-[4-[[4-[4-[(2,6-dioxo-3-piperidyl)amino]phenyl]-1-piperidyl]methyl]phenyl]pyrrolo[2,1-f][1,2,4]triazin-4-yl]phenyl]methyl]-1,2,4-oxadiazole-3-carboxamide] | < 0.1 |
| CC(C)(C)c1nc(C(=O)NCc2ccc(-c3ncnn4cc(CCN5CCC(c6ccc(NC7CCC(=O)NC7=O)cc6)CC5)cc34)cc2F)no1 (stereo not drawn) [Example 120, 5-tert-butyl-N-[[4-[6-[2-[4-[4-[(2,6-dioxo-3-piperidyl)amino]phenyl]-1-piperidyl]ethyl]pyrrolo[2,1-f][1,2,4]triazin-4-yl]-2-fluoro-phenyl]methyl]-1,2,4-oxadiazole-3-carboxamide] | < 0.1 |
| Cc1cc(-c2ncnn3cc(-c4ccc(CN5CCC(c6ccc(NC7CCC(=O)NC7=O)cc6)CC5)cc4)cc23)ccc1CNC(=O)c1cc(C(C)(C)C)on1 (stereo not drawn) [Example 83, -tert-butyl-N-[[4-[6-[4-[[4-[4-[(2,6-dioxo-3-piperidyl)amino]phenyl]-1-piperidyl]methyl]phenyl]pyrrolo[2,1-f][1,2,4]triazin-4-yl]-2-methyl-phenyl]methyl]isoxazole-3-carboxamide] | < 0.1 |

Further lines, results first:

| DC50 [µM] | Compound |
| --- | --- |
| < 0.1 | Cc1cc(-c2ccnn3cc(CCN4CCC(c5ccc(NC6CCC(=O)NC6=O)cc5)CC4)cc23)ccc1CNC(=O)c1noc(C(C)(C)C)n1 (stereo not drawn) [Example 155, 5-tert-butyl-N-[[4-[6-[2-[4-[4-[(2,6-dioxo-3-piperidyl)amino]phenyl]-1-piperidyl]ethyl]pyrrolo[1,2-b]pyridazin-4-yl]-2-methyl-phenyl]methyl]-1,2,4-oxadiazole-3-carboxamide] |
| < 0.1 | Cc1cc(-c2ncnn3cc(CCCCN4CCC(c5ccc6c(N7CCC(=O)NC7=O)nn(C)c6c5)CC4)cc23)ccc1CNC(=O)c1cc(C(C)(C)C)no1 [Example 280, 3-(tert-butyl)-N-(4-(6-(4-(4-(3-(2,4-dioxotetrahydropyrimidin-1(2H)-yl)-1-methyl-1H-indazol-6-yl)piperidin-1-yl)butyl)pyrrolo[2,1-f][1,2,4]triazin-4-yl)-2-methylbenzyl)isoxazole-5-carboxamide] |
| < 0.1 | Cc1cc(-c2ncnn3cc(CCN4CCC(c5ccc6c(N7CCC(=O)NC7=O)cnn6c5)CC4)cc23)ccc1CNC(=O)c1noc(C(C)(C)C)n1 [Example 270, 5-(tert-butyl)-N-(4-(6-(2-(4-(3-(2,4-dioxotetrahydropyrimidin-1(2H)-yl)pyrazolo[1,5-a]pyridin-6-yl)piperidin-1-yl)ethyl)pyrrolo[2,1-f][1,2,4]triazin-4-yl)-2-methylbenzyl)-1,2,4-oxadiazole-3-carboxamide] |
| < 0.1 | Cc1cc(-c2ncnn3cc(-c4ccc(CN5CCC(c6ccc(NC7CCC(=O)NC7=O)cc6)CC5)cc4)cc23)ccc1CNC(=O)c1ccc(C(C)C)nc1 (stereo not drawn) [Example 69, N-[[4-[6-[4-[[4-[4-[(2,6-dioxo-3-piperidyl)amino]phenyl]-1-piperidyl]methyl]phenyl]pyrrolo[2,1-f][1,2,4]triazin-4-yl]-2-methyl-phenyl]methyl]-6-isopropyl-pyridine-3-carboxamide] |
| < 0.1 | Cc1cc(-c2ncnn3cc(N4CCN(C(=O)CCCCC5CCN(C(=O)c6ccc(OC7CCC(=O)NC7=O)cc6)CC5)CC4)cc23)ccc1CNC(=O)c1noc(C(C)(C)C)n1 (stereo not drawn) [Example 182, 5-(tert-butyl)-N-(4-(6-(4-(5-(1-(4-((2,6-dioxopiperidin-3-yl)oxy)benzoyl)piperidin-4-yl)pentanoyl)piperazin-1-yl)pyrrolo[2,1-f][1,2,4]triazin-4-yl)-2-methylbenzyl)-1,2,4-oxadiazole-3-carboxamide] |
| < 0.1 | CC(C)(C)c1nc(C(=O)NCc2ccc(-c3ncnn4cc(-c5ccc(CN6CCC(c7ccc(C8CCC(=O)NC8=O)cc7)CC6)cc5)cc34)cc2F)no1 (stereo not drawn) [Example 42, 5-tert-butyl-N-[[4-[6-[4-[[4-[4-(2,6-dioxo-3-piperidyl)phenyl]-1-piperidyl]methyl]phenyl]pyrrolo[2,1-f][1,2,4]triazin-4-yl]-2-fluoro-phenyl]methyl]-1,2,4-oxadiazole-3-carboxamide] |
| < 0.1 | CC(C)(C)c1nc(C(=O)NCc2ccc(-c3ncnn4cc(-c5ccc(CN6CCc7ccc(OC8CCC(=O)NC8=O)cc7CC6)cn5)cc34)cc2F)no1 (stereo not drawn) [Example 230, 5-(tert-butyl)-N-(4-(6-(5-((7-((2,6-dioxopiperidin-3-yl)oxy)-1,2,4,5-tetrahydro-3H-benzo[d]azepin-3-yl)methyl)pyridin-2-yl)pyrrolo [2,1-f][1,2,4]triazin-4-yl)-2-fluorobenzyl)-1,2,4-oxadiazole-3-carboxamide] |
| < 0.1 | Cc1cc(-c2ncnn3cc(-c4ncc(CN5CCC(c6ccc(C7CCC(=O)NC7=O)cc6)CC5)cc4C)cc23)ccc1CNC(=O)c1noc(C(C)(C)C)n1 (stereo not drawn) [Example 213, 5-(tert-butyl)-N-(4-(6-(5-((4-(4-(2,6-dioxopiperidin-3-yl)phenyl)piperidin-1-yl)methyl)-3-methylpyridin-2-yl)pyrrolo[2,1-f][1,2,4]triazin-4-yl)-2-methylbenzyl)-1,2,4-oxadiazole-3-carboxamide] |
| < 0.1 | Cc1cc(-c2ncnn3cc(-c4ccc(CN5CCC(c6ccc(C7CCC(=O)NC7=O)cc6F)CC5)cc4)cc23)ccc1CNC(=O)c1noc(C(C)(C)C)n1 (stereo not drawn) [Example 9, 5-tert-butyl-N-[[4-[6-[4-[[4-[4-(2,6-dioxo-3-piperidyl)-2-fluoro-phenyl]-1-piperidyl]methyl]phenyl]pyrrolo[2,1-f][1,2,4]triazin-4-yl]-2-methyl-phenyl]methyl]-1,2,4-oxadiazole-3-carboxamide] |
